Assay results published in ChEMBL document CHEMBL4825684, “Design, synthesis and biological evaluation of N-anthraniloyl tryptamine derivatives as pleiotropic molecules for the therapy of malignant glioma” (Eur J Med Chem, 2021).
Calls of active or inactive are those of the source. The rule behind the calls is not given here.

Assays:
C6 [1] = test: Antiproliferative activity against rat C6 cells assessed as growth inhibition incubated for 72 hrs by CCK-8 assay; type: functional, cell-based; conditions: C6, 72 h
[2] = target: Signal transducer and activator of transcription 3 (Homo sapiens) (UniProt P40763); test: Inhibition of STAT3 nuclear translocation in human U251 cells incubated for 24 hrs by Hoechst staining based fluorescence confocal imaging analysis; type: cell-based; conditions: U-251
[3] = target: Signal transducer and activator of transcription 3 (Homo sapiens) (UniProt P40763); test: Inhibition STAT3 phosphorylation in human U-87 MG cells incubated up to 8 hrs by Western blot analysis; type: cell-based; conditions: time hrs <=8
U-87 MG [4] = test: Antiproliferative activity against human U-87 MG cells assessed as colony formation ratio at 4 uM measured after 24 hrs by plate clone formation assay relative to control; type: functional, U-87MG ATCC
U-251 [5] = test: Antiproliferative activity against human U-251 cells assessed as colony formation ratio at 4 uM measured after 24 hrs by plate clone formation assay relative to control; type: functional
U-87 MG [6] = test: Cytotoxicity against human U-87 MG cells assessed as cell viability at 4 uM measured up to 24 hrs; type: functional, U-87MG ATCC; conditions: time hrs <=24, read-out: Activity
U-251 [7] = test: Induction of apoptosis in human U-251 cells assessed as early apoptotic cells at 2 uM incubated for 48 hrs by […] double staining based flow cytometry assay (reference value: 0.73%); type: functional
U-251 [8] = test: Induction of apoptosis in human U-251 cells assessed as viable cells at 4 uM incubated for 48 hrs by […] double staining based flow cytometry assay (reference value: 96.6%); type: functional; conditions: read-out: Activity
U-251 [9] = test: Induction of apoptosis in human U-251 cells assessed as early apoptotic cells at 4 uM incubated for 48 hrs by […] double staining based flow cytometry assay (reference value: 0.73%); type: functional
U-251 [10] = test: Induction of apoptosis in human U-251 cells assessed as early apoptotic cells at 8 uM incubated for 48 hrs by […] double staining based flow cytometry assay (Rvb+B32 = 0.73%); type: functional
U-251 [11] = test: Induction of apoptosis in human U-251 cells assessed as necrotic cells at 8 uM incubated for 48 hrs by […] double staining based flow cytometry assay (reference value: 1.32%); type: functional
U-87 MG [12] = test: Induction of apoptosis in human U-87 MG cells assessed as viable cells at 2 uM incubated for 48 hrs by Annexin VIM double staining based flow cytometry assay (reference value: 97.8%); type: functional, U-87MG ATCC; conditions: read-out: Activity
U-87 MG [13] = test: Induction of apoptosis in human U-87 MG cells assessed as early apoptotic cells at 2 uM incubated for 48 hrs by […] double staining based flow cytometry assay (reference value: 0.63%); type: functional, U-87MG ATCC
U-87 MG [14] = test: Induction of apoptosis in human U-87 MG cells assessed as late apoptotic cells at 4 uM incubated for 48 hrs by […] double staining based flow cytometry assay (reference value: 0.61%); type: functional, U-87MG ATCC
U-87 MG [15] = test: Induction of apoptosis in human U-87 MG cells assessed as necrotic cells at 4 uM incubated for 48 hrs by Annexin VIM double staining based flow cytometry assay (reference value: 0.91%); type: functional, U-87MG ATCC
U-87 MG [16] = test: Induction of apoptosis in human U-87 MG cells assessed as early apoptotic cells at 8 uM incubated for 48 hrs by […] double staining based flow cytometry assay (reference value: 0.63%); type: functional, U-87MG ATCC
U-87 MG [17] = test: Induction of apoptosis in human U-87 MG cells assessed as late apoptotic cells at 8 uM incubated for 48 hrs by […] double staining based flow cytometry assay (reference value: 0.61%); type: functional, U-87MG ATCC
U-87 MG [18] = test: Induction of apoptosis in human U-87 MG cells assessed as necrotic cells at 8 uM incubated for 48 hrs by Annexin VIM double staining based flow cytometry assay (reference value: 0.91%); type: functional, U-87MG ATCC
U-251 [19] = test: Induction of apoptosis in human U-251 cells assessed as decrease in Bcl2/Bax ratio at 2 to 4 uM incubated for 48 hrs by Western blot analysis relative to control; type: functional, cell-based; conditions: dose 2-4 µM
U-87 MG [20] = test: Induction of apoptosis in human U-87 MG cells assessed as increase in cytochrome c release at 1 to 4 uM incubated for 48 hrs by Western blot analysis relative to control; type: functional, cell-based; conditions: U-87MG ATCC, dose 1-4 µM
U-251 [21] = test: Antimigratory activity against human U-251 cells assessed as inhibition of migration incubated for 24 hrs by matrigel trans well plate assay; type: functional, cell-based; conditions: dose 1-4 µM
U-87 MG [22] = test: Antimigratory activity against human U-87 MG cells assessed as inhibition of migration incubated for 24 hrs by matrigel trans well plate assay; type: functional, cell-based; conditions: U-87MG ATCC
[23] = Acute toxicity in Kunming mouse assessed behavioural changes at 1000 mg/kg, ip measured for 14 days; type: organism-based; conditions: in vivo, 336 h, time 14 day
[24] = Half life in Sprague-Dawley rat at 60 mg/kg, ip measured up to 24 hrs by LC-MS analysis; type: ADME, organism-based; conditions: in vivo
[25] = Drug uptake in Sprague-Dawley rat cerebrospinal fluid at 60 mg/kg, ip measured after 2 hrs by LC-MS analysis; type: ADME, organism-based; conditions: read-out: Drug uptake
[26] = Plasma concentration in Sprague-Dawley rat at 60 mg/kg, ip measured after 2 hrs by LC-MS analysis; type: ADME, organism-based
C6 [27] = test: Antitumor activity against rat C6 cells inoculated orthotopic Sprague-Dawley rat model assessed as tumor growth inhibition at 50 mg/kg, ip twice a day treated 3 days after tumor cell injection measured for 13 days after tumor implantation; type: functional; conditions: 72 h, time 3 day, read-out: TGI
C6 [28] = test: Antitumor activity against rat C6 cells inoculated orthotopic Sprague-Dawley rat model assessed as decrease in PGE2 in tumor tissue at 50 mg/kg, ip twice a day treated 3 days after tumor cell injection measured for 13 days after tumor implantation […]; type: functional, organism-based; conditions: time 3.0 day
C6 [29] = test: Antitumor activity against rat C6 cells inoculated orthotopic Sprague-Dawley rat model assessed as decrease in VEGF-A in tumor tissue at 50 mg/kg, ip twice a day treated 3 days after tumor cell injection measured for 13 days after tumor implantation by Western blot analysis; type: functional, organism-based; conditions: time 3.0 day
C6 [30] = test: Antitumor activity against rat C6 cells inoculated orthotopic Sprague-Dawley rat model assessed as decrease in p-STAT3 in tumor tissue at 50 mg/kg, ip twice a day treated 3 days after tumor cell injection measured for 13 days after tumor implantation by Western blot analysis; type: functional, organism-based; conditions: time 3.0 day
Rattus norvegicus = test: Anxiolytic activity in rat C6 cells inoculated orthotopic Sprague-Dawley rat model assessed as increase in time spent in central part at 50 mg/kg, ip twice a day administered for 13 days of tumor implantation by open field test relative to control; type: functional, organism-based; conditions: time 13.0 day
[31] = Toxicity in rat C6 cells inoculated orthotopic Sprague-Dawley rat model assessed as autonomic movement at 50 mg/kg, ip twice a day administered for 13 days of tumor implantation by open field test; type: organism-based; conditions: in vivo, 312 h, time 13 day
[32] = Toxicity in rat C6 cells inoculated orthotopic Sprague-Dawley rat model assessed as changes in blood at 50 mg/kg, ip twice a day administered for 13 days of tumor implantation by routine blood test; type: organism-based; conditions: in vivo, 312 h, time 13 day
C6 [33] = test: Antitumor activity against rat C6 cells inoculated orthotopic Sprague-Dawley rat model assessed as suppression of glioma cells to invade the surrounding brain tissue at 50 mg/kg, ip twice a day administered for 13 days of tumor implantation by hematoxylin-eosin staining analysis; type: functional, organism-based; conditions: time 13.0 day
C6 [34] = test: Antitumor activity against rat C6 cells inoculated orthotopic Sprague-Dawley rat model assessed as tumor necrosis at 50 mg/kg, ip twice a day administered for 13 days of tumor implantation by hematoxylin-eosin staining analysis; type: functional, organism-based; conditions: time 13.0 day

Sequence of Signal transducer and activator of transcription 3 (Homo sapiens) (P40763 whole entry): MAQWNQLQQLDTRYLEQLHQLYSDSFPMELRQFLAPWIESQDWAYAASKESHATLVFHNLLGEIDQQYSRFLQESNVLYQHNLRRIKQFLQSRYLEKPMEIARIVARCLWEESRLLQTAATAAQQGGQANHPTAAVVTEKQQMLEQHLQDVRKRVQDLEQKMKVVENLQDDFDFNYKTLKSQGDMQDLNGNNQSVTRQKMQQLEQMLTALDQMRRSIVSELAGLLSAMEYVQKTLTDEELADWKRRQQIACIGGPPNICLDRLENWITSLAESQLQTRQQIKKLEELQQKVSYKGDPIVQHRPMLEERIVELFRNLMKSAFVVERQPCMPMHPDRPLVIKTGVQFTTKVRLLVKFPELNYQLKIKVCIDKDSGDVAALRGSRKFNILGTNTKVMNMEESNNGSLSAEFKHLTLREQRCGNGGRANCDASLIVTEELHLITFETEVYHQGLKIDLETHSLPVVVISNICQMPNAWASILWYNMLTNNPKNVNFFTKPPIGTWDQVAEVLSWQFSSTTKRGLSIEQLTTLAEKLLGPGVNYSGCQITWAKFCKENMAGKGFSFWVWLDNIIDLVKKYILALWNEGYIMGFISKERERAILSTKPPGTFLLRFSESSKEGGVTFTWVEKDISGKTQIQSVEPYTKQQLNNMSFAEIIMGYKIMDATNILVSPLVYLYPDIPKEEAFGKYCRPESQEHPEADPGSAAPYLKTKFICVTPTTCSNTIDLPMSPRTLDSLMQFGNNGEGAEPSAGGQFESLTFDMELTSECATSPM

## COc1cc(Nc2ccccc2C(=O)NCCc2c[nH]c3ccccc23)cc(OC)c1OC
C6 [1]
  IC50: 4.23 µM
[2]
  inhibition: Active
[3]
  inhibition: Active
U-87 MG [4]
  Activity: 0%
U-251 [5]
  Activity: 5.33%
U-87 MG [6]
  viability at 4 µM: 80%
U-251 [7]
  Activity: 4.93%
U-251 [8]
  viability at 4 µM: 65.5%
U-251 [9]
  Activity: 7.95%
U-251 [10]
  Activity: 9.93%
U-251 [11]
  Activity: 7.24%
U-87 MG [12]
  viability at 2 µM: 95.1%
U-87 MG [13]
  Activity: 2.17%
U-87 MG [14]
  Activity: 3.78%
U-87 MG [15]
  Activity: 1.86%
U-87 MG [16]
  Activity: 13.8%
U-87 MG [17]
  Activity: 7.44%
U-87 MG [18]
  Activity: 1.1%
U-251 [19]
  Activity: Active
U-87 MG [20]
  Activity: Active
U-251 [21]
  Activity: Active
U-87 MG [22]
  Activity: Active
[23]
  Activity: Non-Toxic
[24]
  half-life: 11.4 h
[25]
  concentration at 2 h: 200 ng/mL
[26]
  concentration at 2 h: 520 ng/mL
C6 [27]
  inhibition in vivo at 50 mg/kg: 66%
C6 [28]
  Activity: Active
C6 [29]
  Activity: Active
C6 [30]
  Activity: Active
Rattus norvegicus
  Activity: Active
[31]
  Activity: Non-Toxic
[32]
  Activity: Non-Toxic
C6 [33]
  Activity: Active
C6 [34]
  Activity: Active
